Results on nine compounds are retold here after patent US8921404B2, “Azole derivatives in the form of lipase and phospholipase inhibitors” (Sanofi, priority 2005, dated 2014).

The structures appear in SMILES notation.

Chain of hormone sensitive lipase, HSL (P15304 301-1068, change not shown): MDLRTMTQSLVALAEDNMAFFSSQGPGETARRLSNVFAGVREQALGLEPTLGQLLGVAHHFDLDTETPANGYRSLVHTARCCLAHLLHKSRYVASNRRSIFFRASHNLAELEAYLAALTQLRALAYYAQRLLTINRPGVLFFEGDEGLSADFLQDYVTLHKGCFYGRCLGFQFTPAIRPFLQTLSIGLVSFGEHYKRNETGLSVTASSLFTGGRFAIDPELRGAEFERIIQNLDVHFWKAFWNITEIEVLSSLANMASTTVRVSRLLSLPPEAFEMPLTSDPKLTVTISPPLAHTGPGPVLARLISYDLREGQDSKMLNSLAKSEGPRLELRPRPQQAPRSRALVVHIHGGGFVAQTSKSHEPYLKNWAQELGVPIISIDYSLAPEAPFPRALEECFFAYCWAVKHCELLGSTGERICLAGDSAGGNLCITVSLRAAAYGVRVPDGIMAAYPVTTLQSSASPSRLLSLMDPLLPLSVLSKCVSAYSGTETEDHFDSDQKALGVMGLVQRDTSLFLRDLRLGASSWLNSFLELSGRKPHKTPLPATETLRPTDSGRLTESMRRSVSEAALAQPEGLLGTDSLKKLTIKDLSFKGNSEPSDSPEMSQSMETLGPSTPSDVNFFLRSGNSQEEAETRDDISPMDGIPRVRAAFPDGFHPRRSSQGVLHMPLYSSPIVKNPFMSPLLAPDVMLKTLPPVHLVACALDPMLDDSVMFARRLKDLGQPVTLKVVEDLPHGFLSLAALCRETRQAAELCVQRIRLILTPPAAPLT
Chain of endothelial lipase (EL) (Q9Y5X9 21-500, species assumed): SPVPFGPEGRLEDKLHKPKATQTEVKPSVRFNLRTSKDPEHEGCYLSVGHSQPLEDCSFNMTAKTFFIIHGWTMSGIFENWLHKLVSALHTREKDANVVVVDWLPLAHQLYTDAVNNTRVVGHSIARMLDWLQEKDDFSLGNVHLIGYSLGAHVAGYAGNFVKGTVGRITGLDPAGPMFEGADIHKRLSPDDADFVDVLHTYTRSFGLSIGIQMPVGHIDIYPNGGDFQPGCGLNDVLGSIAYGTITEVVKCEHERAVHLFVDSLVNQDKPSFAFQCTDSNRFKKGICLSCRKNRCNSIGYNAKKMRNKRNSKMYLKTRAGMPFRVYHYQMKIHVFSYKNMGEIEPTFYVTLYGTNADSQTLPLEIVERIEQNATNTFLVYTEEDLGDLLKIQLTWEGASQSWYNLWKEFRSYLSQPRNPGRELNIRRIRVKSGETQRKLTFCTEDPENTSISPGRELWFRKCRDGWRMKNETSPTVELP

The first test has as its target hormone sensitive lipase, HSL (Rattus norvegicus (Rat), UniProt P15304). In words: HSL inhibition assay. The format is biochemical. Particulars: partially purified HSL from rat fat cells; [3H]trioleoylglycerol substrate. How it is done:
1.1. Preparation of the Partially Purified HSL:
Isolated rat fat cells are obtained from epididymal adipose tissue from untreated male rats (Wistar, 220-250 g) by collagenase treatment in accordance with published methods (e.g. S, Nilsson et al., Anal. Biochem. 158, 1986, 399-407; G. Fredrikson et al., J. Biol. Chem. 256, 1981, 6311-6320; H. Tornquist et al., J. Biol. Chem. 251, 1976, 813-819). The fat cells from 10 rats are washed three times by flotation with 50 ml of homogenization buffer ([…] Tris/HCl, pH 7.4, 0.25 M sucrose, 1 mM ETDA, 1 mM DTT, 10 μg/ml leupeptin, 10 μg/ml antipain, 20 μg/ml pepstatin) each time and finally taken up in 10 ml of homogenization buffer. The fat cells are homogenized in a Teflon-in-glass homogenizer (Braun-Melsungen) by 10 strokes at 1500 rpm and 15° C. The homogenate is centrifuged (Sorvall SM24 tubes, 5000 rpm, 10 min, 4° C.). The subnatant between the layer of fat at the top and the pellet is removed and the centrifugation is repeated. The subnatant resulting therefrom is centrifuged again (Sorvall SM24 tubes, 20 000 rpm, 45 min, 4° C.). The subnatant is removed, and 1 g of heparin-Sepharose (Pharmacia-Biotech, CL-6B, washed 5× with 25 mM Tris/HCl, pH 7.4, 150 mM NaCl) is added. After incubation at 4° C. for 60 min (shaking at intervals of 15 min), the mixture is centrifuged (Sorvall SM24 tubes, 3000 rpm, 10 min, 4° C.). The supernatant is adjusted to pH 5.2 by adding glacial acetic acid and is incubated at 4° C. for 30 min. The precipitates are collected by centrifugation (Sorvall SS34, 12 000 rpm, 10 min, 4° C.) and suspended in 2.5 ml of 20 mM Tris/HCl, pH 7.0, 1 mM EDTA, 65 mM NaCl, 13% sucrose, 1 mM DTT, 10 μg/ml leupeptin/pepstatin/antipain. The suspension is dialyzed against 25 mM Tris/HCl, pH 7.4, 50% glycerol, 1 mM DTT, 10 μg/ml leupeptin, pepstatin, antipain at 4° C. overnight and then loaded onto a hydroxyapatite column (0.1 g per 1 ml of suspension, equilibrated with 10 mM potassium phosphate, pH 7.0, 30% glycerol, 1 mM DTT). The column is washed with four volumes of equilibration buffer at a flow rate of 20 to 30 ml/h. The HSL is eluted with one volume of equilibration buffer containing 0.5 M potassium phosphate and then dialyzed (see above) and concentrated 5- to 10-fold by ultrafiltration (Amicon Diaflo PM 10 Filter) at 4° C. The partially purified HSL can be stored at −70° C. for 4 to 6 weeks.
To prepare the substrate, 25-50 μCi of [3H]trioleoylglycerol (in toluene), 6.8 μmol of unlabeled trioleoylglycerol and 0.6 mg of phospholipids (phosphatidylcholine/phosphatidylinositol 3:1 w/v) are mixed, dried with N2 and then taken up in 2 ml of 0.1 M KPi (pH 7.0) by ultrasound treatment (Branson 250, microtip, setting 1-2, 2×1 min with an interval of 1 min). After addition of 1 ml of KPi and renewed ultrasound treatment (4×30 sec on ice with intervals of 30 sec), 1 ml of 20% BSA (in KPi) is added (final concentration of trioleoylglycerol 1.7 mM). For the reaction, 100 μl of substrate solution are pipetted into 100 μl of HSL solution (HSL prepared as above, diluted in 20 mM KPi, pH 7.0, 1 mM EDTA, 1 mM DTT, 0.02% BSA, 20 μg/ml pepstatin, 10 μg/ml leupeptin) and incubated at 37° C. for 30 min. Addition of 3.25 ml of methanol/chloroform/heptane (10:9:7) and of 1.05 ml of 0.1 M K2CO3, 0.1 M boric acid (pH 10.5) is followed by thorough mixing and finally centrifugation (800×g, 20 min). After phase separation, one equivalent of the upper phase (1 ml) is removed and the radioactivity is determined by liquid scintillation measurement.
1.3 Evaluation of the HSL-Inhibitory Effect:
Substances are normally tested in four independent mixtures. The inhibition of the HSL enzymatic activity by a test substance is determined by comparing with an uninhibited control reaction. The IC50 is calculated from an inhibition plot with at least 10 concentrations of the test substance. The GRAPHIT, Elsevier-BIOSOFT software package is used to analyze the data.
In turn, `CC1CCN(C(=O)Oc2noc3cc(Cl)ccc23)CC1` [Example 1, 6-Chlorobenzo[d]isoxazol-3-yl 4-methylpiperidine-1-carboxylate] showed a half-inhibitory concentration (IC50) of 0.12 µM.
The same measure, in the same setting: then `CC1CCN(C(=O)Oc2noc3ncccc23)CC1` [Example 2, Isoxazolo[5,4-b]pyridin-3-yl 4-methylpiperidine-1-carboxylate], with 0.12 µM; and `O=C(Oc1noc2cc(Cl)ccc12)N1CCC(C(F)(F)F)CC1` [Example 3, 6-Chlorobenzo[d]isoxazol-3-yl 4-trifluoromethylpiperidine-1-carboxylate], with 0.1 µM; and `CC1CCN(C(=O)Oc2nsc3ncccc23)CC1` [Example 4, Isothiazolo[5,4-b]pyridin-3-yl 4-methylpiperidine-1-carboxylate], with 0.1 µM.
Same read-out and setting: then `CC1CCN(C(=O)Oc2nsc3ccccc23)CC1` [Example 5, Benzo[d]isothiazol-3-yl 4-methylpiperidine-1-carboxylate], with 0.1 µM; and `CC1CCN(C(=O)Oc2noc3nc(Cl)ccc23)CC1` [Example 10, 6-Chloroisoxazolo[5,4-b]pyridin-3-yl 4-methylpiperidine-1-carboxylate], with 0.67 µM.
The same measure, in the same setting: with `Cc1ccc2c(OC(=O)N3CCC(C)CC3)noc2n1` [Example 11, 6-Methylisoxazolo[5,4-b]pyridin-3-yl 4-methylpiperidine-1-carboxylate] the figure was 0.26 µM.

A further test has as its target endothelial lipase (EL) (Homo sapiens (Human), UniProt Q9Y5X9). In words: EL inhibition assay. The class given is biochemical. The note with it: EL from conditioned medium of recombinant cell lines (CHO, HEK293); Bodipy phospholipid substrate. The text has this:
EL is released as secretory protein in high concentration into cell culture medium (conditioned medium) by recombinant cell lines (CHO, HEK293). This is employed as enzyme solution after concentration.
The phospholipase-specific substrate 1,2-bis(4,4-difluoro-5,7-dimethyl-4-bora-3a,4a-diaza-s-indacene-3-undecanoyl)-sn-glycero-3-phosphocholine, (manufacturer Molecular Probes) is used to characterize the enzymatic activity of endothelial lipase and the effect of inhibitors. Hydrolysis of the A1 ester linkage of this phospholipid by the enzyme liberates the fluorescent dye Bodipy which can be detected after separation by thin-layer chromatography on an HPTLC plate (silica gel 60, Merck) or directly in the reaction vessel by measuring the fluorescence.
The substrate solution is prepared by taking up 100 μg of 1,2-bis(4,4-difluoro-5,7-dimethyl-4-bora-3a,4a-diaza-s-indacene-3-undecanoyl)-sn-glycero-3-phospho-choline (manufacturer Molecular Probes), 2.4 mg of tripalmitin (Sigma) and 7.9 mg of DOP—choline (1,2-dioleoyi-sn-glycero-3-phosphocholine) in 393 μl of chloroform and then transferring 157 μl into a fresh reaction vessel. After evaporation of the solvent, the lipid mixture is dissolved in 4 ml of 200 mM TRIS-HCl, 150 mM sodium chloride, pH=7.4, by sonication twice. […] After evaporation of the eluent, the plate is read in a fluorescence scanner. […]
In the case of `Cc1ccccc1CNC(=O)Nc1nsc2ccc([N+](=O)[O-])cc12` [Example 7, 1-(2-Methylbenzyl)-3-(5-nitrobenzo[d]isothiazol-3-yl)urea], the IC50 was determined as 14.6 µM.
The same measure, in the same setting: then `CCCCCCNC(=O)Nc1noc2ccccc12` [Example 8, 1-Benzo[d]isoxazol-3-yl-3-hexylurea], with 14.6 µM.
